Measurements taken from patent US10548317B2, “Pesticidally active pyrazole derivatives” (SYNGENTA PARTICIPATIONS AG, priority 2015, dated 2020).

Tests used:
Assay type in all cases: in vivo
Diabrotica balteata = Diabrotica balteata (corn root worm) maize sprout test; settings: 96 h, application rate of 200 ppm, maize sprouts, L2 larvae, 4 days after infestation, read-out: effect in at least one of the two categories (mortality or growth inhibition)
Method: Diabrotica balteata, (Corn Root Worm)
Maize sprouts, placed on an agar layer in 24-well microtiter plates were treated with aqueous test solutions prepared from 10'000 ppm DMSO stock solutions by spraying. After drying, the plates were infested with L2 larvae (6 to 10 per well). The samples were assessed for mortality and growth inhibition in comparison to untreated samples 4 days after infestation. The following compounds gave an effect of at least 80% in at least one of the two categories (mortality or growth inhibition) at an application rate of 200 ppm: 1, 3, 4, 5, 6, 7, 8, 9, 10, 11, 12, 14, 15, 16, 17, 18, 19, 20, 21, 22, 23, 24, 25, 26, 27, 28, 29, 30, 31, 32, 33, 35, 36, 37, 38, 39, 40, 41, 42, 43, 44, 45, 48, 50, 51, 52, 53, 54 and 55.

Plutella xylostella = Plutella xylostella (diamond back moth) artificial diet test; settings: 120 h, application rate of 200 ppm, L2 larvae, 5 days after infestation, read-out: effect in at least one of the two categories (mortality or growth inhibition)
Method: Plutella xylostella (Diamond Back Moth):
24-well microtiter plates with artificial diet were treated with aqueous test solutions prepared from 10'000 ppm DMSO stock solutions by pipetting. After drying, the plates were infested with L2 larvae (10 to 15 per well). The samples were assessed for mortality and growth inhibition in comparison to untreated samples 5 days after infestation. The following compounds gave an effect of at least 80% in at least one of the two categories (mortality or growth inhibition) at an application rate of 200 ppm: 1, 2, 3, 4, 5, 6, 7, 8, 9, 10, 11, 12, 13, 14, 15, 16, 17, 18, 19, 20, 21, 22, 23, 24, 25, 26, 27, 28, 29, 30, 31, 32, 33, 35, 36, 37, 38, 39, 40, 41, 42, 43, 44, 45, 46, 47, 48, 50, 51, 52, 53, 54 and 55.

Spodoptera littoralis = Spodoptera littoralis (Egyptian cotton leaf worm) leaf disc spray test; settings: foliar, 72 h, application rate of 200 ppm, cotton leaf discs, L1 larvae, 3 days after infestation, read-out: control (at least one of mortality, anti-feedant effect, growth inhibition)
Method: Spodoptera littoralis (Egyptian Cotton Leaf Worm)
Cotton leaf discs were placed on agar in 24-well microtiter plates and sprayed with aqueous test solutions prepared from 10'000 ppm DMSO stock solutions. After drying the leaf discs were infested with five L1 larvae. The samples were assessed for mortality, anti-feedant effect, and growth inhibition in comparison to untreated samples 3 days after infestation. Control of Spodoptera littoralis by a test sample is when at least one of mortality, anti-feedant effect, and growth inhibition is higher than the untreated sample.

Thrips tabaci = Thrips tabaci (onion thrips) sunflower leaf disc test; settings: foliar, 144 h, application rate of 200 ppm, sunflower leaf discs, mixed ages, 6 days after infestation
Method: Thrips tabaci (Onion thrips):
(§1) Sunflower leaf discs were placed on agar in 24-well microtiter plates and sprayed with aqueous test solutions prepared from 10'000 ppm DMSO stock solutions. After drying the leaf discs were infested with a thrips population of mixed ages. The samples were assessed for mortality 6 days after infestation.

Tetranychus urticae = Tetranychus urticae (two-spotted spider mite) bean leaf disc test; settings: foliar, 192 h, application rate of 200 ppm, bean leaf discs, mixed population (mobile stages), 8 days after infestation
Method: Tetranychus urticae (Two-Spotted Spider Mite):
as §1, with “Bean” for “Sunflower”, “discs” for “discs were placed”, “were” for “and”, “mite” for “thrips”, “on mixed population (mobile stages) 8” for “6”

Euschistus heros = Euschistus heros (neotropical brown stink bug) soybean leaf test; settings: 120 h, application rate of 200 ppm, soybean leaves, N2 nymphs, 5 days after infestation, read-out: effect in at least one of the two categories (mortality or growth inhibition)
Method: Euschistus heros (Neotropical Brown Stink Bug)
Soybean leaves on agar in 24-well microtiter plates were sprayed with aqueous test solutions prepared from 10'000 ppm DMSO stock solutions. After drying the leaves were infested with N2 nymphs. The samples were assessed for mortality and growth inhibition in comparison to untreated samples 5 days after infestation. The following compounds gave an effect of at least 80% in at least one of the two categories (mortality or growth inhibition) at an application rate of 200 ppm: 3, 4, 5, 6, 9, 10, 12, 14, 15, 16, 17, 18, 20, 24, 27, 28, 29, 31, 32, 33, 36, 37, 38, 42, 43, 45, 50, 52, 53, 54 and 55.

Cn1nc(C(F)(F)C(F)(F)F)c(C(F)(F)F)c1-n1cc(-c2cc(C(=O)NCCC(F)(F)F)c(Cl)s2)cn1 [Compound 30]
≥ 80%: percent effect (mortality or growth inhibition) at 200 ppm (Diabrotica balteata) | percent effect (mortality or growth inhibition) at 200 ppm (Plutella xylostella) | control (mortality, anti-feedant effect or growth inhibition) at 200 ppm (Spodoptera littoralis) | mortality at 200 ppm (Thrips tabaci) | mortality at 200 ppm (Tetranychus urticae)

Cn1nc(OC(F)(F)C(F)C(F)(F)F)c(C(F)(F)F)c1-n1cc(-c2cc(C(=O)NC3CC3)c(Cl)s2)cn1 (stereo not shown) [Compound 53]
≥ 80%: percent effect (mortality or growth inhibition) at 200 ppm (Euschistus heros) | percent effect (mortality or growth inhibition) at 200 ppm (Diabrotica balteata) | percent effect (mortality or growth inhibition) at 200 ppm (Plutella xylostella) | control (mortality, anti-feedant effect or growth inhibition) at 200 ppm (Spodoptera littoralis)

Cn1nc(C(F)(F)C(F)(F)F)c(C(F)(F)F)c1-n1cc(-c2cc(C(=O)Nc3ccncc3)c(Cl)s2)cn1 [Compound 21]
≥ 80%: percent effect (mortality or growth inhibition) at 200 ppm (Diabrotica balteata) | percent effect (mortality or growth inhibition) at 200 ppm (Plutella xylostella) | control (mortality, anti-feedant effect or growth inhibition) at 200 ppm (Spodoptera littoralis) | mortality at 200 ppm (Thrips tabaci)

Cn1nc(C(F)(F)C(F)(F)F)c(C(F)(F)F)c1-n1cc(-c2csc(C(=O)NC3(C#N)CC3)c2)cn1 [Compound 51]
≥ 80%: percent effect (mortality or growth inhibition) at 200 ppm (Diabrotica balteata) | percent effect (mortality or growth inhibition) at 200 ppm (Plutella xylostella) | control (mortality, anti-feedant effect or growth inhibition) at 200 ppm (Spodoptera littoralis)

Cn1nc(C(F)(F)C(F)(F)F)c(C(F)(F)F)c1-n1cc(-c2nc(C(=O)NC3CC3)c(Cl)s2)cn1 [Compound 8, 5-chloro-N-cyclopropyl-2-[1-[2-methyl-5-(1,1,2,2,2-pentafluoroethyl)-4-(trifluoromethyl)pyrazol-3-yl]pyrazol-4-yl]thiazole-4-carboxamide]
≥ 80%: percent effect (mortality or growth inhibition) at 200 ppm (Diabrotica balteata) | percent effect (mortality or growth inhibition) at 200 ppm (Plutella xylostella) | control (mortality, anti-feedant effect or growth inhibition) at 200 ppm (Spodoptera littoralis)

Cn1nc(C(F)(F)C(F)(F)F)c(C(F)(F)F)c1-n1cc(-c2csc(C(=O)NC3(C#N)CC3)n2)cn1 [Compound 41]
≥ 80%: percent effect (mortality or growth inhibition) at 200 ppm (Diabrotica balteata) | percent effect (mortality or growth inhibition) at 200 ppm (Plutella xylostella) | control (mortality, anti-feedant effect or growth inhibition) at 200 ppm (Spodoptera littoralis)

Cc1nn(-c2cnn(-c3c(C(F)(F)F)c(C(F)(F)C(F)(F)F)nn3C)c2)cc1C(=O)NC1CC1 [Compound 46]
≥ 80%: percent effect (mortality or growth inhibition) at 200 ppm (Plutella xylostella) | control (mortality, anti-feedant effect or growth inhibition) at 200 ppm (Spodoptera littoralis)

Cn1nc(C(F)(F)C(F)(F)F)c(C(F)(F)F)c1-n1cc(-c2csc(C(=O)NC3CC3)n2)cn1 [Compound 40]
≥ 80%: percent effect (mortality or growth inhibition) at 200 ppm (Diabrotica balteata) | percent effect (mortality or growth inhibition) at 200 ppm (Plutella xylostella) | control (mortality, anti-feedant effect or growth inhibition) at 200 ppm (Spodoptera littoralis)

Cn1nc(C(F)(F)C(F)(F)F)c(C(F)(F)F)c1-n1cc(-c2cc(Cl)c(C(=O)NC3CC3)s2)cn1 [Compound 1, 3-chloro-N-cyclopropyl-5-[1-[2-methyl-5-(1,1,2,2,2-pentafluoroethyl)-4-(trifluoromethyl)pyrazol-3-yl]pyrazol-4-yl]thiophene-2-carboxamide]
≥ 80%: percent effect (mortality or growth inhibition) at 200 ppm (Diabrotica balteata) | percent effect (mortality or growth inhibition) at 200 ppm (Plutella xylostella) | control (mortality, anti-feedant effect or growth inhibition) at 200 ppm (Spodoptera littoralis) | mortality at 200 ppm (Thrips tabaci) | mortality at 200 ppm (Tetranychus urticae)

Cn1nc(C(F)(F)C(F)(F)F)c(OC(F)F)c1-n1cc(-c2cc(C(=O)NC3(C#N)CC3)cs2)cn1 [Compound 39]
≥ 80%: percent effect (mortality or growth inhibition) at 200 ppm (Diabrotica balteata) | percent effect (mortality or growth inhibition) at 200 ppm (Plutella xylostella) | control (mortality, anti-feedant effect or growth inhibition) at 200 ppm (Spodoptera littoralis) | mortality at 200 ppm (Tetranychus urticae)

Cn1nc(C(F)(F)C(F)(F)F)c(C(F)(F)F)c1-n1cc(-c2cc(C(=O)NC3(C(F)(F)F)CC3)c(Cl)s2)cn1 [Compound 22]
≥ 80%: percent effect (mortality or growth inhibition) at 200 ppm (Diabrotica balteata) | percent effect (mortality or growth inhibition) at 200 ppm (Plutella xylostella) | control (mortality, anti-feedant effect or growth inhibition) at 200 ppm (Spodoptera littoralis) | mortality at 200 ppm (Thrips tabaci) | mortality at 200 ppm (Tetranychus urticae)

Cn1nc(C(F)(F)C(F)(F)F)c(C(F)(F)F)c1-n1cc(-c2cc(C(=O)NCc3ccccn3)c(Cl)s2)cn1 [Compound 26]
≥ 80%: percent effect (mortality or growth inhibition) at 200 ppm (Diabrotica balteata) | percent effect (mortality or growth inhibition) at 200 ppm (Plutella xylostella) | control (mortality, anti-feedant effect or growth inhibition) at 200 ppm (Spodoptera littoralis) | mortality at 200 ppm (Tetranychus urticae)

C=C(C)CNC(=O)c1cc(-c2cnn(-c3c(C(F)(F)F)c(C(F)(F)C(F)(F)F)nn3C)c2)sc1Cl [Compound 13]
≥ 80%: percent effect (mortality or growth inhibition) at 200 ppm (Plutella xylostella) | control (mortality, anti-feedant effect or growth inhibition) at 200 ppm (Spodoptera littoralis) | mortality at 200 ppm (Tetranychus urticae)

Cn1nc(C(F)(F)C(F)(F)F)c(C(F)(F)F)c1-n1cc(-c2nc(C(=O)NC3(C#N)CC3)c(Cl)s2)cn1 [Compound 7, 5-chloro-N-(1-cyanocyclopropyl)-2-[1-[2-methyl-5-(1,1,2,2,2-pentafluoroethyl)-4-(trifluoromethyl)pyrazol-3-yl]pyrazol-4-yl]thiazole-4-carboxamide]
≥ 80%: percent effect (mortality or growth inhibition) at 200 ppm (Diabrotica balteata) | percent effect (mortality or growth inhibition) at 200 ppm (Plutella xylostella) | control (mortality, anti-feedant effect or growth inhibition) at 200 ppm (Spodoptera littoralis) | mortality at 200 ppm (Tetranychus urticae)

Cn1nc(C(F)(F)C(F)(F)F)c(C(F)(F)F)c1-n1cc(-n2cc(C(=O)NC3(C#N)CC3)c(C(F)(F)F)c2)cn1 [Compound 44]
≥ 80%: percent effect (mortality or growth inhibition) at 200 ppm (Diabrotica balteata) | percent effect (mortality or growth inhibition) at 200 ppm (Plutella xylostella) | control (mortality, anti-feedant effect or growth inhibition) at 200 ppm (Spodoptera littoralis) | mortality at 200 ppm (Thrips tabaci)

Cn1nc(C(F)(F)C(F)(F)F)c(C(F)(F)F)c1-n1cc(-c2cc(C(=O)Nc3ccc(Cl)cc3)c(Cl)s2)cn1 [Compound 25]
≥ 80%: percent effect (mortality or growth inhibition) at 200 ppm (Diabrotica balteata) | percent effect (mortality or growth inhibition) at 200 ppm (Plutella xylostella)

Cn1nc(C(F)(F)C(F)(F)F)c(C(F)(F)F)c1-n1cc(-n2cc(C(=O)NC3(C#N)CC3)c(C(F)(F)F)n2)cn1 [Compound 11]
≥ 80%: percent effect (mortality or growth inhibition) at 200 ppm (Diabrotica balteata) | percent effect (mortality or growth inhibition) at 200 ppm (Plutella xylostella) | control (mortality, anti-feedant effect or growth inhibition) at 200 ppm (Spodoptera littoralis) | mortality at 200 ppm (Thrips tabaci) | mortality at 200 ppm (Tetranychus urticae)

Cn1nc(C(F)(F)C(F)(F)F)c(C(F)(F)F)c1-n1cc(-c2cc(Cl)c(C(=O)NC3(C#N)CC3)s2)cn1 [Compound 2, 3-chloro-N-(1-cyanocyclopropyl)-5-[1-[2-methyl-5-(1,1,2,2,2-pentafluoroethyl)-4-(trifluoromethyl)pyrazol-3-yl]pyrazol-4-yl]thiophene-2-carboxamide]
≥ 80%: percent effect (mortality or growth inhibition) at 200 ppm (Plutella xylostella) | control (mortality, anti-feedant effect or growth inhibition) at 200 ppm (Spodoptera littoralis)

Cn1nc(C(F)(F)C(F)(F)F)c(C(F)(F)F)c1-n1cc(-c2cc(C(=O)NCc3ccccc3)c(Cl)s2)cn1 [Compound 19]
≥ 80%: percent effect (mortality or growth inhibition) at 200 ppm (Diabrotica balteata) | percent effect (mortality or growth inhibition) at 200 ppm (Plutella xylostella) | control (mortality, anti-feedant effect or growth inhibition) at 200 ppm (Spodoptera littoralis) | mortality at 200 ppm (Tetranychus urticae)

CC(C)CNC(=O)c1cc(-c2cnn(-c3c(C(F)(F)F)c(C(F)(F)C(F)(F)F)nn3C)c2)sc1Cl [Compound 23]
≥ 80%: percent effect (mortality or growth inhibition) at 200 ppm (Diabrotica balteata) | percent effect (mortality or growth inhibition) at 200 ppm (Plutella xylostella) | control (mortality, anti-feedant effect or growth inhibition) at 200 ppm (Spodoptera littoralis) | mortality at 200 ppm (Tetranychus urticae)
